Reference: patent US8604053B2, “TRPV1 antagonists” (AbbVie Inc., priority 2008, dated 2013)

Key:
[1] = molecular target: T1, human TRPV1 receptor (hTRPV1) (Homo sapiens, UniProt Q8NER1); assay: Capsaicin activation assay (Ca2+ influx, FLIPR); format: cell-based; settings: hTRPV1 in 1321N1 cells, 0.05 μM capsaicin
T1 construct: expressed in transfected cells
Method: Dulbecco's modified Eagle medium (D-MEM) (with 4.5 mg/mL glucose) and fetal bovine serum were obtained from Hyclone Laboratories, Inc. (Logan, Utah). Dulbecco's phosphate-buffered saline (D-PBS) (with 1 mg/mL glucose and 3.6 mg/l Na pyruvate, without phenol red), L-glutamine, hygromycin B, and Lipofectamine® were obtained from Life Technologies (Grand Island, N.Y.). G418 sulfate was obtained from Calbiochem-Novabiochem Corp. (San Diego, Calif.). Capsaicin (8-methyl-N-vanillyl-6-nonenamide) was obtained from Sigma-Aldrich, Co. (St. Louis, Mo.). Fluo-4 AM (N-[4-[6-[(acetyloxy)methoxy]-2,7-difluoro-3-oxo-3H-xanthen-9-yl]-2-[2-[2-[bis[2-[(acetyloxy)methoxy]-2-oxyethyl]amino]-5-methyl-phenoxy[ethoxy]phenyl]-N-[2-[(acetyloxy)methoxy]-2-oxyethyl]-glycine, (acetyloxy)methyl ester) was purchased from Molecular Probes (Eugene, Oreg.).
The cDNAs for the human TRPV1 receptor (hTRPV1) were isolated by reverse transcriptase-polymerase chain reaction (RT-PCR) from human small intestine poly A+ RNA supplied by Clontech (Palo Alto, Calif.) using primers designed surrounding the initiation and termination codons identical to the published sequences (Hayes et al. Pain 2000, 88, 205-215). The resulting cDNA PCR products were subcloned into pClneo mammalian expression vector (Promega) and fully sequenced using fluorescent dye-terminator reagents (Prism, Perkin-Elmer Applied Biosystems Division) and a Perkin-Elmer Applied Biosystems Model 373 DNA sequencer or Model 310 genetic analyzer. Expression plasmids encoding the hTRPV1 cDNA were transfected individually into 1321N1 human astrocytoma cells using Lipofectamine®. Forty-eight hours after transfection, the neomycin-resistant cells were selected with growth medium containing 800 μg/mL Geneticin (Gibco BRL). Surviving individual colonies were isolated and screened for TRPV1 receptor activity. Cells expressing recombinant homomeric TRPV1 receptors were maintained at 37° C. in D-MEM containing 4 mM L-glutamine, 300 μg/mL G418 (Cal-biochem) and 10% fetal bovine serum under a humidified 5% CO2 atmosphere.
The functional activity of compounds at the TRPV1 receptor was determined with a Ca^2+ influx assay and measurement of intracellular Ca^2+ levels ([Ca^2+]i). All compounds were tested over an 11-point half-log concentration range. Compound solutions were prepared in D-PBS (4× final concentration), and diluted serially across 96-well v-bottom tissue culture plates using a Biomek 2000 robotic automation workstation (Beckman-Coulter, Inc., Fullerton, Calif.). A 0.2 μM solution of the TRPV1 agonist capsaicin was also prepared in D-PBS. The fluorescent Ca^2+ chelating dye Fluo-4 AM was used as an indicator of the relative levels of [Ca^2+]i in a 96-well format using a Fluorescence Imaging Plate Reader (FLIPR)(Molecular Devices, Sunnyvale, Calif.). Cells were grown to confluency in 96-well black-walled tissue culture plates. Then, prior to the assay, the cells were loaded with 100 μL per well of Fluo-4 AM (2 μM, in D-PBS) for 1-2 hours at 23° C. Washing of the cells was performed to remove extracellular Fluo-4 AM (2×1 mL D-PBS per well), and afterward, the cells were placed in the reading chamber of the FLIPR instrument. 50 μL of the compound solutions were added to the cells at the 10 second time mark of the experimental run. Then, after a 3-minute time delay, 50 μL of the capsaicin solution was added at the, 190 second time mark (0.05 μM final concentration)(final volume=200 μL) to challenge the TRPV1 receptor. Time length of the experimental run was 240 seconds. Fluorescence readings were made at 1 to 5 second intervals over the course of the experimental run. The peak increase in relative fluorescence units (minus baseline) was calculated from the 190 second time mark to the end of the experimental run, and expressed as a percentage of the 0.05 μM capsaicin (control) response. […]

human TRPV1 = molecular target: T2, human TRPV1 (Homo sapiens, UniProt Q8NER1); assay: Acid activation assay, ratiometric calcium imaging; format: cell-based; settings: HEK293-F cells expressing human TRPV1, Example 56 at 3 μM; for block of TRPV1-mediated increase in intracellular calcium concentration in response to pH 5.5: acid pH 5.5; for block of TRPV1-mediated increase in intracellular calcium concentration in response to capsaicin: capsaicin 1 μM
T2 construct: expressed in transfected cells; host or cells: HEK293-F cells, transient transfection
T2 sequence (Q8NER1 whole entry): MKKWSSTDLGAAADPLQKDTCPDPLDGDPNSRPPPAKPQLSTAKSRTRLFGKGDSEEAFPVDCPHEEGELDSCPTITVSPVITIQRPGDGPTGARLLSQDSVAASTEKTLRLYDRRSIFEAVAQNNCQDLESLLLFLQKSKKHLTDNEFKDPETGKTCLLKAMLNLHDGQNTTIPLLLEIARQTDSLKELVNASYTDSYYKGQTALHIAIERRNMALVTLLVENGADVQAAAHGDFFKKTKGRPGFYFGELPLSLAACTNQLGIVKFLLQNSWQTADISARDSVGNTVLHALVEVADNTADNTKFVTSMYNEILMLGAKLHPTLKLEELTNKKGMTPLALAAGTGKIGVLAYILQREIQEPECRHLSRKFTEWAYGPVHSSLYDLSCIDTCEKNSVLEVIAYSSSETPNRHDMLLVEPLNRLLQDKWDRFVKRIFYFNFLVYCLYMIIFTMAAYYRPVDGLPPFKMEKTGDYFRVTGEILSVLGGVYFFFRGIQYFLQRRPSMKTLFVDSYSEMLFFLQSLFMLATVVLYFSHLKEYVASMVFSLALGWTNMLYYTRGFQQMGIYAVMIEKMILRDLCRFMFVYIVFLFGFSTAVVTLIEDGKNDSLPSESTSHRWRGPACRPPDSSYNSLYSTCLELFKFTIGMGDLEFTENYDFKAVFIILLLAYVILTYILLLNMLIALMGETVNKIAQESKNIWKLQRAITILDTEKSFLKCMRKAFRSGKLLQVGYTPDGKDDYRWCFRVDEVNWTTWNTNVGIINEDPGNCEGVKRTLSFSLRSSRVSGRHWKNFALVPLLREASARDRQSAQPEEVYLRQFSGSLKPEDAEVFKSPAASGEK
Method: The differential effects of TRPV1 antagonists on capsaicin- or acid-induced responses were verified by ratiometric calcium imaging. Transiently transfected HEK293-F cells expressing human TRPV1 were incubated with 5 μM Fura-2AM for 30 minutes at 37° C. Intracellular calcium concentration was measured on an imaging system consisting of the X-Cite™ 120 Fluorescence Illumination System (EXFO) and a Digital Camera (C4742-95, Hamamatsu Photonics) connected to an Olympus 1×71 microscope. Through the control of Slide Book 4.2 software, fluorescence was measured during excitation at 340 and 380 nm; the ratio of the fluorescence at both excitation wavelengths (F340/F380) was monitored. D-PBS, pH 7.4 (Invitrogen, catalog no. 14287) was used as the extracellular solution. Acidic buffer was prepared by titrating D-PBS, pH 7.4 with 7 N HCl to pH 5.5. Agonists and antagonists were prepared in the pH 7.4 or 5.5 solutions. Rapid solution switch was achieved by using a ValveLink system.
Over the time 1250-second course, the cells were challenged sequentially with solutions containing Example 56 (3 μM), Example 56 (3 μM) plus capsaicin (1 μM), Example 56 (3 μM) plus acid (pH 5.5), or acid (pH 5.5) alone. The black bars above the traces designate addition and duration of solution applications. Spaces between horizontal bars represent periods in which cells were perfused with D-PBS, pH 7.4 alone. […]

[2] = Rat telemetry protocol, core body temperature; format: in vivo; settings: core body temperature of rats one hour post dosing, 100 μmol/kg p.o., relative to vehicle
Method: Male, Sprague Dawley rats, 225-250 grams were anesthetized with Sevoflurane (Abbott Laboratories). Rats were placed on a heating pad and covered with a sterile surgical drape. A ventral midline abdominal incision was made and sterile cotton tip applicators were used to gently move internal tissue and expose the abdominal aorta for implantation of the telemetry catheter (Data Sciences International; TL11M2-050-PXT). Blood flow was temporarily stopped to the lower extremities (5-7 min) with Diffenbach clamps to allow the insertion of the telemetry catheter into the abdominal aorta. Once inserted, a sterile cellulose patch was placed over the catheter/aorta and secured using a small amount of tissue adhesive (Vetbond, 3M). Once catheter placement was complete, the clamps were removed and blood flow was restored to the lower extremities. Thetransmitter was placed in the intraperitoneal cavity. The transmitter suture rib was sewn into the abdominal sutures to secure it in place. The skin was closed using sterile wound clips and the animal removed from Sevoflurane. Buprenex ([…] s.c.; Phoenix) was administered for post-operative analgesia. Animals were maintained on a heating pad until ambulatory, and then individually housed with food and water ad lib. Surgical staples were removed after 7-10 days post-implantation. Rats were allowed a 2-week post-surgical recovery period before treatment with test compound. Oral dosing (p.o.) was at time zero, with rats receiving a single dose of vehicle (10% EtOH, 20% Tween-80, 70% PEG-400) or a 100 μmol/kg dose of compound dissolved in vehicle. Temperature measurements were recorded every 15 minutes for the duration of the study (24 hours).
Representative compounds described herein have the novel property of having limited transient temperature effect on core body temperature of a mammal (e.g. rats). For example, compounds tested alter core body temperature of rats by less than about +0.5° C. at about 1 hour after administration of a single dose (100 μmol/kg) of the test compounds orally, for example, in the range from about −2.5° C. to less than about +0.5° C., from about −0.5° C. to less than about +0.5° C.; or from about −0.3° C. to about +0.3° C.
The term “core body temperature” as used herein, means the temperature measured in the intraperitoneal cavity.

T1 sequence (Q8NER1 whole entry): as above

Row | IC50 [1] [nM] | block of TRPV1-mediated increase in intracellular calcium concentration in response to pH 5.5 (human TRPV1) | block of TRPV1-mediated increase in intracellular calcium concentration in response to capsaicin (human TRPV1) | SMILES | Δ Temp (° C.) [2] [°C]
1 | 31 | did not completely block | completely blocked | CCCC1(CCC)C[C@@H](NC(=O)Nc2cccc3c2cnn3C)c2cc(F)ccc2O1 [Example 61, N-[(4R)-6-fluoro-2,2-dipropyl-3,4-dihydro-2H-chromen-4-yl]-N′-(1-methyl-1H-indazol-4-yl)urea] | 0.3
2 | 50 | did not completely block | completely blocked | CCC1(CC)C[C@@H](NC(=O)Nc2cccc3c2cnn3C)c2cc(F)ccc2O1 [Example 26, N-[(4R)-2,2-diethyl-6-fluoro-3,4-dihydro-2H-chromen-4-yl]-N′-(1-methyl-1H-indazol-4-yl)urea] | 0.1
3 | – | completely blocked | completely blocked | CC(=O)Nc1nc2c(Oc3cc(N4CCN(C(C)c5ccc(F)cc5)CC4)ncn3)cccc2s1 (centres unmarked) [AMG 628, reference compound] | –
4 | 16 | did not completely block | completely blocked | CCC1(CC)C[C@@H](NC(=O)Nc2cccc3c2cnn3C)c2cccc(OC(F)(F)F)c2O1 [Example 55, N-[(4R)-2,2-diethyl-8-(trifluoromethoxy)-3,4-dihydro-2H-chromen-4-yl]-N′-(1-methyl-1H-indazol-4-yl)urea] | 0.3
